This note sets out measurements from BindingDB's records for patent US9790233 (Case Western Reserve University, 2017).

SMILES strings stand for the structures.

The experiment deals with T1, 15-hydroxyprostaglandin dehydrogenase [NAD(+)] (Homo sapiens, UniProt P15428).
T1 sequence (P15428 whole entry): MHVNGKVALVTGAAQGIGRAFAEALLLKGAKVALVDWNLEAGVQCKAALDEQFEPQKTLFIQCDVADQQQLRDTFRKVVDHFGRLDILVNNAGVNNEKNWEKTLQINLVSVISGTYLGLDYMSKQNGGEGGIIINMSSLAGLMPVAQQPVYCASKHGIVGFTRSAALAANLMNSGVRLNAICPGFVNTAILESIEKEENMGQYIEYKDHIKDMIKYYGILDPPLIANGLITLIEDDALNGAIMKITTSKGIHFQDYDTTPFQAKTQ
The experiment is described as follows: In Vitro Assay.

In the case of `CCCCC(=O)c1sc2nc(-c3nccs3)ccc2c1N` [US9790233, ID SW206992], 1.41 nM corresponded to half-maximal inhibition (IC50).

The IC50 is the concentration that gives 50% inhibition.
